Columns and labels:
[1] = Health vitals and open-field test in PDX mice; assay type: in vivo, mouse; conditions: end of study, 2 mg/Kg Bwt i.p.
Procedure: FIG. 12 illustrates an embodiment of the present invention and illustrates SIM-1 and SIM-2 arrest the growth of human TNBC tumor in patient-derived xenograft mouse model. TM00096 tumor (origin of invasive ductal carcinoma isolated from a person) was seeded in the flank of 6-week-old female SCID mice by Jackson Laboratory and then shipped to our research facility. Once the tumor reached ˜4 mm in size (˜30 mm^3 in volume), n=6 mice/group were treated by vehicle (5% DMSO), SIM-1 and SIM-2 (2 mg/Kg Bwt mixed with 5% DMSO) via i.p. for 2 weeks in every alternate day. The tumor size was monitored accordingly during the treatment and two more weeks after the last dose to evaluate the recurrence. […] (B) Tumor size was measured every alternate day for 4 weeks by a digital caliper and then the volume was calculated using the formula 0.5*Length*Width^2. […] (D) Body weight was recorded during the course of the study to monitor the adverse metabolic outcome due to the drug administration. (E) The heart rate was monitored at 0-, 7-, 14-, and 28-days post SIM-1 and SIM-2 treatments by MouseStat Jr console (Kent Scientific) as per the manufacturer's instruction. (F) At the end of the study, the gross motor performance was recorded for n=6 (i) vehicle, (ii) SIM-1-, and (iii) SIM-2-treated mice. […]

MDA-MB-468 cells = assay: TUNEL assay in MDA-MB-468 cells; assay type: cell-based, human; conditions: 25 nM
Procedure: FIG. 11 illustrates an embodiment of the present invention and illustrates SIM-1 and SIM-2 induced apoptosis in MDA-MB-468 TNBC cells, but not HMEC control cells. MDA-MB-468 cells were treated with increasing doses of (A) SIM-1 and (B) SIM-2 for 48 hrs followed by lactate dehydrogenase (LDH) release assay in the supernatants. The result was offset with cell-bound LDH and presented as a percent of DMSO control as discussed under method section. Half-maximal cytotoxicity or CT50 analyses were performed plotting maximum response as an index of increasing doses of (C) SIM-1 and (D) SIM-2. AnnexinV (green) and propidium iodide (red) dual-labeling were performed to evaluate apoptotic response in MDA-MB-468 cells once treated with increasing doses of (E) SIM-1 and (F) SIM-2 for 24 hrs. […] (H) The number of TUNEL bodies were counted as a percent of 100 cresyl violet-stained blue cells. Ten independent images were counted for the quantification study. Similarly, SIM-2 was assessed for (I) TUNEL and (J) subsequent quantification analyses. […]
This example provides a representative experiment that studies if SIM-1 and SIM-2 promoted the death of TNBC cells. […] During apoptosis, phosphatidyl serine of the plasma membrane flips from the inner to the outer membrane which can be detected by Annexin V labeling, whereas PI stains the nucleus of a cell with compromised integrity of the plasma membrane. […]

| Structure (SMILES) | open-field test: gross movement, total distance traveled, average speed [1] | TUNEL response (MDA-MB-468 cells) |
| --- | --- | --- |
| CCOC(=O)c1c(NC(C)=O)sc2c(Cl)c(/C=N/O)ccc12 [SIM-2, ethyl 2-acetamido-7-chloro-6-(hydroxyiminomethyl)-1-benzothiophene-3-carboxylate] | did not show any adverse outcome | strongly induced |
| O=C(O)CCC(=O)NCc1csc2ccc(Cl)cc12 [SIM-1, 4-[(5-chloro-1-benzothiophen-3-yl)methylamino]-4-oxobutanoic acid] | did not show any adverse outcome | strongly induced |
